The values that follow come from patent publication US10562909B2, “Fused quadracyclic compounds, compositions and uses thereof” (Tabomedex Biosciences, LLC, priority 2016, dated 2020).

Where only a bound is given, the exact number is not on record here.

MAPKAPK2, sequence (P49137 whole entry, species assumed): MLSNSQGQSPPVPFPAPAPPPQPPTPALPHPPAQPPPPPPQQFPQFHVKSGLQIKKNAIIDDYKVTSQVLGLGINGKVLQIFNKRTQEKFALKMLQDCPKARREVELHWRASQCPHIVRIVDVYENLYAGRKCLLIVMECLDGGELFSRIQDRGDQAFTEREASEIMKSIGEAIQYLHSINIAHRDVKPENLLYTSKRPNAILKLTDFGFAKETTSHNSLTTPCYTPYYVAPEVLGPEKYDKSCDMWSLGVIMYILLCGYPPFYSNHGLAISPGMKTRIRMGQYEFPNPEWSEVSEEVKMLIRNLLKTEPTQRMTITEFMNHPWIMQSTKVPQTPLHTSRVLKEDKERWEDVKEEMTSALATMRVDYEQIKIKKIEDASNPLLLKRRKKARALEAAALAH

The assay has as its target MAPKAPK2 (Homo sapiens, UniProt P49137). Description: MK2 Enzymatic Assay. Format: biochemical. The settings on record: 0.5 nM MAPKAPK2, 3 μM ATP, 2 μM Ser/Thr4 peptide, 23° C., values given as concentration bins. The method, boiled down:
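MAPKAPK2 (2× stock 1 nM) and peptide substrate (2× 4 μM) were preincubated 20 min, then started with ATP (2× stock 6 μM) for 120 min. After 120 min development, coumarin/fluorescein emission ratio gave percent phosphorylation against 0% and 100% phosphopeptide controls.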
Usually IC50 stands for the midpoint of a concentration-inhibition curve. High values mean weaker potency in that assay, low ones greater potency in that assay. In the case of `Cc1cc(N2C[C@@H](CN(C)C)[C@H](O)C2)cc2c1-n1ncnc1-c1cc(-c3ccc(F)cc3)cn1C2` [Compound 513, (3S,4R)-4-((dimethylamino)methyl)-1-(12-(4-fluorophenyl)-5-methyl-9H-benzo[e]pyrrolo[1,2-a][1,2,4]triazolo[5,1-c][1,4]diazepin-7-yl)pyrrolidin-3-ol], the concentration for half-maximal inhibition (IC50) was 100 to 200 nM.

The compound `N#Cc1ccc(-c2cc3n(c2)Cc2nc(N4CCC5(CNC5)C4)ccc2-n2ccnc2-3)cc1` [Compound 310, 4-(7-(2,6-diazaspiro[3.4]octan-6-yl)-9H-imidazo[2,1-c]pyrido[3,2-e]pyrrolo[1,2-a][1,4]diazepin-12-yl)benzonitrile] showed an IC50 below 50 nM. As to `COCc1cnc2n1-c1ccc(N3CC[C@@H](N(C)C)C3)cc1Cn1cc(-c3ccc(C#N)cc3)cc1-2` [Compound 278, 4-(7-((R)-3-(dimethylamino)pyrrolidin-1-yl)-3-(methoxymethyl)-9H-benzo[e]imidazo[2,1-c]pyrrolo[1,2-a][1,4]diazepin-12-yl)benzonitrile], the IC50 is below 50 nM.

In turn, `CN1CC2(CCN(c3ccc4c(c3)Cn3cc(-c5ccc(F)cc5)cc3-c3nccn3-4)C2)C1` [Compound 344, 12-(4-fluorophenyl)-7-(2-methyl-2,6-diazaspiro[3.4]octan-6-yl)-9H-benzo[e]imidazo[2,1-c] pyrrolo[1,2-a][1,4]diazepine] had an IC50 below 50 nM. `C[C@@H](CO)N1CC2(CCN(c3ccc4c(c3)Cn3cc(-c5ccc(F)cc5)cc3-c3nccn3-4)C2)C1` [Compound 371, (S)-2-(6-(12-(4-fluorophenyl)-9H-benzo[e]imidazo[2,1-c]pyrrolo[1,2-a][1,4]diazepin-7-yl)-2,6-diazaspiro[3.4]octan-2-yl)propan-1-ol]: the IC50 is below 50 nM. In the case of `CN[C@H]1CCN(c2ccc3c(c2)Cn2cc(-c4ccc(F)cc4)cc2-c2ncnn2-3)C1` [Compound 410, (S)-1-(12-(4-fluorophenyl)-9H-benzo[e]pyrrolo[1,2-a][1,2,4]triazolo[5,1-c][1,4]diazepin-7-yl)-N-methylpyrrolidin-3-amine], the IC50 lay in the range of 50 to 100 nM. The compound `CN(C)C[C@@H]1CCN(c2cc3c(cn2)-n2cnnc2-c2cc(-c4ccc(C#N)cc4)cn2C3)C1` [Compound 317, (S)-4-(7-(3-((dimethylamino)methyl)pyrrolidin-1-yl)-9H-pyrido[3,4-e]pyrrolo[1,2-a][1,2,4]triazolo[3,4-c][1,4]diazepin-12-yl)benzonitrile] yielded an IC50 of 100 to 200 nM. `CN(C)C[C@@H]1CN(c2ccc3c(c2)Cn2cc(-c4ccc(F)cc4)cc2-c2nccn2-3)C[C@H]1O` [Compound 357, (3S,4R)-4-((dimethylamino)methyl)-1-(12-(4-fluorophenyl)-9H-benzo[e]imidazo[2,1-c]pyrrolo[1,2-a][1,4]diazepin-7-yl)pyrrolidin-3-ol]: the IC50 is below 50 nM. To `Cc1nnc2n1-c1ccc(N3CC[C@H](N)C3)cc1Cn1cc(-c3ccc(C#N)cc3)cc1-2` [Compound 230, 4-(7-((S)-3-aminopyrrolidin-1-yl)-3-methyl-9H-benzo[e]pyrrolo[1,2-a][1,2,4]triazolo[3,4-c][1,4]diazepin-12-yl)benzonitrile] belongs 50 to 100 nM; to `N#Cc1ccc(-c2cc3n(c2)Cc2cc(N4CCC5(CNC5)C4)ncc2-n2cnnc2-3)cc1` [Compound 318, 4-(7-(2,6-diazaspiro[3.4]octan-6-yl)-9H-pyrido[3,4-e]pyrrolo[1,2-a][1,2,4]triazolo[3,4-c][1,4]diazepin-12-yl)benzonitrile], 100 to 200 nM; to `N#Cc1ccc(-c2cc3n(c2)Cc2cc(N4CCC5(CNC5)C4)ncc2-n2ccnc2-3)cc1` [Compound 323, 4-(7-(2,6-diazaspiro[3.4]octan-6-yl)-9H-imidazo[2,1-c]pyrido[3,4-e]pyrrolo[1,2-a][1,4]diazepin-12-yl)benzonitrile], 50 to 100 nM. To `CNCC[C@H]1CN(c2ccc3c(c2)Cn2cc(-c4ccc(F)cc4)cc2-c2nccn2-3)C[C@@H]1O` (relative stereo) [Compound 493, Trans-1-(12-(4-fluorophenyl)-9H-benzo[e]imidazo[2,1-c]pyrrolo[1,2-a][1,4]diazepin-7-yl)-4-(2-(methylamino)ethyl)pyrrolidin-3-ol] belongs below 50 nM; to `CN(C)[C@@H]1CN(c2ccc3c(n2)Cn2cc(-c4ccc(F)cc4)cc2-c2nccn2-3)C[C@H]1O` [Compound 431, (3R,4R)-4-(dimethylamino)-1-(12-(4-fluorophenyl)-9H-imidazo[2,1-c]pyrido[3,2-e]pyrrolo[1,2-a][1,4]diazepin-7-yl)pyrrolidin-3-ol], below 50 nM; to `CNC[C@@H]1CCN(c2ccc3c(c2)Cn2cc(-c4ccc(F)cc4)cc2-c2nccn2-3)C1` [Compound 347, (S)-1-(1-(12-(4-fluorophenyl)-9H-benzo[e]imidazo[2,1-c]pyrrolo[1,2-a][1,4]diazepin-7-yl)pyrrolidin-3-yl)-N-methylmethanamine], below 50 nM. In the case of `CN[C@@H]1CCN(c2ccc3c(c2)Cn2cc(-c4ccc(F)cc4)cc2-c2ncnn2-3)C1` [Compound 409, (R)-1-(12-(4-fluorophenyl)-9H-benzo[e]pyrrolo[1,2-a][1,2,4]triazolo[5,1-c][1,4]diazepin-7-yl)-N-methylpyrrolidin-3-amine], the IC50 lay within 100 to 200 nM.

`CC(C)N1CC2(CCN(c3ccc4c(c3)Cn3cc(-c5ccc(F)cc5)cc3-c3nccn3-4)C2)C1` [Compound 368, 12-(4-fluorophenyl)-7-(2-isopropyl-2,6-diazaspiro[3.4]octan-6-yl)-9H-benzo[e]imidazo[2,1-c]pyrrolo[1,2-a][1,4]diazepine] came in with a half-inhibitory concentration (IC50) below 50 nM.

With `N[C@@H]1CCCN(c2ccc3c(c2)Cn2cc(-c4ccc(F)cc4)cc2-c2nnnn2-3)C1` [Compound 389, (R)-1-(12-(4-fluorophenyl)-9H-benzo[e]pyrrolo[1,2-a]tetrazolo[5,1-c][1,4]diazepin-7-yl) piperidin-3-amine], the half-inhibitory concentration (IC50) was below 50 nM. Compound `CNC[C@H]1CN(c2ccc3c(c2)Cn2cc(-c4ccc(F)cc4)cc2-c2nccn2-3)C[C@H]1O` [Compound 482, (3S,4S)-1-(12-(4-fluorophenyl)-9H-benzo[e]imidazo[2,1-c]pyrrolo[1,2-a][1,4]diazepin-7-yl)-4-((methylamino)methyl)pyrrolidin-3-ol] gave a half-maximal inhibitory concentration (IC50) below 50 nM.

On to `CN(C)[C@H]1CN(c2ccc3c(c2)Cn2cc(-c4ccc(C#N)cc4)cc2-c2nccn2-3)C[C@@H]1O` [Compound 131, 4-(7-((3S,4S)-3-(dimethylamino)-4-hydroxypyrrolidin-1-yl)-9H-benzo[e]imidazo[2,1-c]pyrrolo[1,2-a][1,4]diazepin-12-yl)benzonitrile], for which the IC50 is below 50 nM. `OC1CCN(C[C@H]2CCN(c3ccc4c(c3)Cn3cc(-c5ccc(F)cc5)cc3-c3nccn3-4)C2)CC1` [Compound 362, (R)-1-((1-(12-(4-fluorophenyl)-9H-benzo[e]imidazo[2,1-c]pyrrolo[1,2-a][1,4]diazepin-7-yl)pyrrolidin-3-yl)methyl)piperidin-4-ol] registered a 50% inhibitory concentration (IC50) below 50 nM. For `CN(C)C[C@H]1CN(c2ccc3c(c2)Cn2cc(-c4ccc(C#N)cc4)cc2-c2nncn2-3)C[C@H]1O` (relative stereo) [Compound 75, 4-(7-(Cis-3-((dimethylamino)methyl)-4-hydroxypyrrolidin-1-yl)-9H-benzo[e]pyrrolo[1,2-a] [1,2,4]triazolo[3,4-c][1,4]diazepin-12-yl)benzonitrile] the value was below 50 nM. In turn, `Fc1ccc(-c2cc3n(c2)Cc2cc(N4CC5(CCCNC5)C4)ccc2-n2ccnc2-3)cc1` [Compound 377, 12-(4-fluorophenyl)-7-(2,6-diazaspiro[3.5]nonan-2-yl)-9H-benzo[e]imidazo[2,1-c]pyrrolo[1,2-a][1,4]diazepine] came in with an IC50 below 50 nM. Compound `CC(C)(NCC1CCN(c2ccc3c(c2)Cn2cc(-c4ccc(F)cc4)cc2-c2nccn2-3)C1)C(=O)O` (stereo not shown) [Compound 479, 2-(((1-(12-(4-fluorophenyl)-9H-benzo[e]imidazo[2,1-c]pyrrolo[1,2-a][1,4]diazepin-7-yl)pyrrolidin-3-yl)methyl)amino)-2-methylpropanoic acid] came in with an IC50 of 100 to 200 nM. For `CC1c2cc(N3C[C@@H](CN(C)C)[C@H](O)C3)ccc2-n2ccnc2-c2cc(-c3ccc(F)cc3)cn21` (stereo partly drawn) [Compound 507, (3S,4R)-4-((dimethylamino)methyl)-1-(12-(4-fluorophenyl)-9-methyl-9H-benzo[e]imidazo[2,1-c]pyrrolo[1,2-a][1,4]diazepin-7-yl)pyrrolidin-3-ol] the value was below 50 nM; for `CN(C)CC[C@H]1CN(c2ccc3c(c2)Cn2cc(-c4ccc(F)cc4)cc2-c2nccn2-3)C[C@@H]1O` (relative stereo) [Compound 494, Trans-4-(2-(dimethylamino)ethyl)-1-(12-(4-fluorophenyl)-9H-benzo[e]imidazo[2,1-c]pyrrolo[1,2-a][1,4]diazepin-7-yl)pyrrolidin-3-ol], below 50 nM. Regarding `OCCN1CC2(CCN(c3ccc4c(c3)Cn3cc(-c5ccc(F)cc5)cc3-c3nccn3-4)C2)C1` [Compound 369, 2-(6-(12-(4-fluorophenyl)-9H-benzo[e]imidazo[2,1-c]pyrrolo[1,2-a][1,4]diazepin-7-yl)-2,6-diazaspiro[3.4]octan-2-yl)ethanol], the 50% inhibitory concentration (IC50) was below 50 nM. The compound `C[C@H](CO)N1CC2(CCN(c3ccc4c(c3)Cn3cc(-c5ccc(F)cc5)cc3-c3nccn3-4)C2)C1` [Compound 370, (R)-2-(6-(12-(4-fluorophenyl)-9H-benzo[e]imidazo[2,1-c]pyrrolo[1,2-a][1,4]diazepin-7-yl)-2,6-diazaspiro[3.4]octan-2-yl)propan-1-ol] displayed an IC50 below 50 nM. Take `CN(C)[C@H]1CN(c2ccc3c(c2)Cn2cc(-c4ccc(F)cc4)cc2-c2nccn2-3)C[C@@H]1O` [Compound 352, (3S,4S)-4-(dimethylamino)-1-(12-(4-fluorophenyl)-9H-benzo[e]imidazo[2,1-c]pyrrolo[1,2-a] [1,4]diazepin-7-yl)pyrrolidin-3-ol]: the IC50 is below 50 nM.
